Patent publication US6780596B2, “Methods for determining the activity of complex mixtures” (Ashni Naturaceuticals, Inc., priority 1998, dated 2004)

Tested on: LNCaP prostate cells
Test: Phosphotyrosyl protein expression in LNCaP prostate cells (SDS-PAGE, anti-phosphotyrosine immunoblot)
Type: cell-based, human
Conditions: for number of phosphotyrosylprotein bands decreased in staining intensity / affected: of sixteen bands in dividing LNCaP cells, 15 to 90 kDa
Description: Chemicals: Anti-phosphotyrosine antibodies may be purchased from Upstate Biotechnology (Lake Placid, N.Y.). Saw palmetto (Serenoa repens) extract may be obtained from Ashland Nutritional (Irvine Calif.). All other chemicals may be purchased from Sigma Chemical Company (St. Louis, Mo.) and are the highest purity commercially available.
Human Prostate Cell Line: The LNCaP prostate cell line (CRL-1740) is useful as a model for prostate hyperplasia and may be obtained from the American Type Culture Collection (Bethesda, Md.). LNCaP cells were originally isolated from a person and are characteristic of prostatic carcinoma. They are androgen and estrogen responsive, produce prostate specific antigen (PSA), and prostatic acid phosphatase in culture.
Cell Plating: LNCaP cells may be propagated as monolayers according to the instructions of the supplier. For experiments, cells may be plated at a density of 1×10^5 cells per mL in 100 mm plates, 20 mL per plate, 3 plates per treatment. […]
On day three, a subset of control LNCaP cells is synchronized to Go by reducing the serum concentration of the medium to 0.5%. These cells are termed quiescent, resting or unstimulated LNCaP cells.
After a four-day incubation period with the test materials, the test LNCaP cells may be collected by washing plates three times with ice-cold phosphate-buffered saline, pH 7.4 (PBS) over ice, removed by scraping, pelleted by centrifugation at 4° C. The cell pellet may be lysed for 20 min. in 20 mM Tris buffer (pH 8.0) with 137 mM NaCl, 10% glycerol, 1% Nonidet P-40, 1 mM phenylmethylsulfonyl fluoride, 0.15 units/mL aprotonin, and 1 mM sodium orthovanadate while on wet ice. Cell lysates are collected after centrifugation at 30,000 rpm at 4° C. for 10 minutes to separate cellular debris from lysates.
Gel Electrophoresis: Sodium dodecyl sulfate polyacrylamide gel electrophoresis (PAGE) is performed using 10% polyacrylamide gels, as described by Laemmli, U.K. and Favre, M., 80 Journal of Molecular Biology 575-99 (1973), with the modification that the cell lysates (100 μg protein/lane) are heated at 100° C. for three minutes.
Immunoblotting: The immunoblotting is performed as described by Towbin et al., 76 Proc. Natl. Acad. Sci. USA 4350 (1979), however, a Milliblot SDE electroblot apparatus (Millipore, Bedford, Mass.), is used to transfer proteins from the polyacrylamide gels to an IMMOBILON® membrane filter. Complete transfers are accomplished in 25-30 minutes at 500 mA. Membranes used for blotting are blocked by incubating in TBS (Tris buffered saline, 50 mM Tris, 150 mM NaCl, pH 7.5) containing 5% nonfat dry milk for 30 minutes at room temperature. Phosphotyrosylproteins are visualized by incubation of the blots with the anti-phosphotyrosine antibody in TBST (0.05% Tween 20 in TBS) for two hours and then a second incubation at room temperature with alkaline phosphatase-conjugated secondary antibody diluted 1:1000 in TBST for two hours. The enzymatic reaction is developed for 15 minutes. Molecular weights of immuno-stained proteins are estimated by adding molecular weight standards to reference lanes and staining the membrane filters with amido black 10B.
Blots are translated into TIFF-formatted files with a Microtech 600GS scanner and quantified using Scan Analysis (BIOSOFT™, Cambridge, UK). Summary scans are then printed and peak heights are measured directly from figure. One density unit (Du) is defined as one mm of the resulting peak height.
Protein Determination: Spectrophotometric determination of protein concentration is determined with bicinchoninic acid as reported by Smith, et al. Measurement of protein using bicinchoninic acid. 150 ANAL. BIOCHEM. 76-85 (1985).
Statistical Analysis: Dose responses are defined as three or more consecutive doses resulting in a consistent, reproducible appearance or disappearance of a phosphotyrosylprotein in the immunoblot. […]

CC(C)=CCC/C(C)=C/C=C/C(C)=C/C=C/C(C)=C/C=C/C=C(C)/C=C/C=C(C)/C=C/C=C(\C)CCC=C(C)C [lycopene]
concentration at which the 15, 17 and 20 kDa phosphotyrosylproteins disappear entirely (lowest concentration tested): 100 ng/mL | number of phosphotyrosylprotein bands decreased in staining intensity / affected: fourteen

CC(C)(C)NC(=O)[C@H]1CC[C@H]2[C@@H]3CC[C@H]4NC(=O)C=C[C@]4(C)[C@H]3CC[C@]12C [finasteride, Finasteride]
40 kDa band (0.05 μg/mL finasteride): barely visible | tyrosylphosphorylation of the 28 and 36 kDa proteins (0.05 μg/mL finasteride): completely eliminated | number of phosphotyrosylprotein bands decreased in staining intensity / affected: three

CC[C@H](CC[C@@H](C)[C@H]1CC[C@H]2[C@@H]3CC=C4C[C@@H](O)CC[C@]4(C)[C@H]3CC[C@]12C)C(C)C [beta-sitosterol]
phosphotyrosylproteins at 45 and 50 kDa (50 μg beta-sitosterol/mL): faint bands | concentration at which the 36 and 40 kDa phosphotyrosylproteins disappear entirely (beta-sitosterol 5, 10 or 50 μg/mL): 10 µg/mL | number of phosphotyrosylprotein bands decreased in staining intensity / affected: four

C/C1=C2/[N-][C@H]([C@H](CC(N)=O)[C@@]2(C)CCC(=O)NC[C@@H](C)OP(=O)([O-])O[C@H]2[C@@H](O)[C@@H](n3cnc4cc(C)c(C)cc43)O[C@@H]2CO)[C@]2(C)N=C(/C(C)=C3N=C(/C=C4N=C1[C@@H](CCC(N)=O)C\4(C)C)[C@@H](CCC(N)=O)[C@]\3(C)CC(N)=O)[C@@H](CCC(N)=O)[C@]2(C)CC(N)=O.[CH3-].[Co] [methylcobalamine]
phosphotyrosylproteins at 40 and 50 kDa (500 μg methylcobalamine/mL): faint bands | effective concentration (effect on phosphotyrosylprotein expression): approximately 500 μg/mL | concentration at which the 45 kDa phosphotyrosylprotein disappears entirely (methylcobalamine 5, 50 or 500 μg/mL): 500 µg/mL | number of phosphotyrosylprotein bands decreased in staining intensity / affected: three

C[C@H]1[C@H](C)CC[C@]2(C(=O)O)CC[C@]3(C)C(=CC[C@@H]4[C@@]5(C)CC[C@H](O)C(C)(C)[C@@H]5CC[C@]43C)[C@H]12 [ursolic acid]
concentration at which the phosphotyrosylproteins at 28, 30, 50 and 60 kDa are no longer visible (highest concentration tested): 5 µg/mL | concentration at which the 17, 20, 28 and 34 kDa phosphotyrosylproteins disappear entirely (lowest concentration tested): 0.5 µg/mL | number of phosphotyrosylprotein bands decreased in staining intensity / affected: ten
